# Results: patent US6759420B1, “Arylalkanoyl derivatives, processes for their preparation, their use and pharmaceutical compositions containing them” (Aventis Pharma Deutschland GmbH, priority 1999, dated 2004)
# Structures can show the parent of a compound that is named as a salt.
# Target: factor Xa (Homo sapiens, UniProt P00742)
# Test: Factor Xa assay (Test 1a), chromogenic
# Assay type: biochemical
# Set-up: purchased Enzyme Research Laboratories, Inc; South Bend, Ind
# Conditions: in vitro factor Xa assay Test 1a; human factor Xa 0.5 nM, substrate S-2765 140 μM, 25° C.; Ki from IC50 corrected for substrate competition
# From the text: The ability of a compound of formula (I) to inhibit factor Xa, thrombin, plasmin, elastase, and trypsin may be assessed by determining the concentration of compound of formula (I) that inhibits enzyme activity by 50% (IC50). Purified enzymes are used in chromogenic assays. To determine the inhibition constant, the IC50 value is corrected for competition with substrate using the formula:
# Ki=IC50×(1/{1+((substrate concentration)/substrate Km)})
# where Km is the Michaelis-Menten constant. Y. -C. Chen and W. H. Prusoff, Biochem. Pharmacol. 22: […] (1973), which is incorporated herein by reference.
# TBS-PEG buffer (50 mM Tris-Cl, pH 7.8, 200 mM NaCl, 0.05% (w/v) PEG-8000, 0.02% (w/v) NaN3) is used for this assay. The IC50 is determined by combining in appropriate wells of a Costar half-area microtiter plate 25 μl human factor Xa (Enzyme Research Laboratories, Inc.; South Bend, Ind.) in TBS-PEG; 40 μl 10% (v/v) DMSO in TBS-PEG (uninhibited control) or various concentrations of the compound to be tested diluted in 10% (v/v) DMSO in TBS-PEG; and substrate S-2765 (N-benzyloxycarbonyl-D-Arg-Gly-L-Arg-p-nitroanilide; Kabi Pharmacia, Inc.; Franklin Ohio) in TBS-PEG.
# The assays are performed by pre-incubating the compound of formula (I) plus enzyme for 10 min, then the assay is initiated by adding substrate to obtain a final volume of 100 μl. The initial velocity of chromogenic substrate hydrolysis is measured by the change in absorbance at 405 nm using a Bio-tek Instruments kinetic plate reader (Ceres UV900HDi) at 25° C. during the linear portion of the time course (usually 1.5 min after addition of substrate). The concentration of inhibitor that causes a 50% decrease in the rate of substrate hydrolysis is predicted by linear regression after plotting the relative rates of hydrolysis (compared to the uninhibited control) versus the log of the compound of formula (I) concentration. The enzyme concentration is 0.5 nM and substrate concentration is 140 μM.
# factor Xa, sequence (P00742 235-488 limits assumed): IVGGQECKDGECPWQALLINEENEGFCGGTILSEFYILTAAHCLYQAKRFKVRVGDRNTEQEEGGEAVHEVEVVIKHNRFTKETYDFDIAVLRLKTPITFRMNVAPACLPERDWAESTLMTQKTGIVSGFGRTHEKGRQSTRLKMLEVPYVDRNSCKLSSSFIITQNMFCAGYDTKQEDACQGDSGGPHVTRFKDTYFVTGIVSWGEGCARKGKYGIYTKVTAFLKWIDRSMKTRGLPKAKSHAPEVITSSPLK
# factor Xa, sequence (P00742 41-179 limits assumed): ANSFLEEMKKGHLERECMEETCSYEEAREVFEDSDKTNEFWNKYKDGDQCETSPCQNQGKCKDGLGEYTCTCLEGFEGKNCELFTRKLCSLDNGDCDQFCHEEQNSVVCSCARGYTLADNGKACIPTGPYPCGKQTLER
row,Ki [nM],Compound
1,310,"CCC(C)[C@@H](C(=O)N[C@@H](CCCNC(=N)N)C(N)=O)N(C)C(=O)C(Cc1ccc(C(=N)N)cc1)c1cccnc1 (mixture of isomers) [Example 18, 2-(S)-{[3-(4-Carbamimidoyl-phenyl)-2-(R,S)-pyridin-3-yl-propionyl]-methyl-amino}-3-methyl-pentanoic acid (1-(S)-carbamoyl-4-guanidino-butyl)-amide trifluoroacetic acid salt]"
2,4,"N=C(N)c1ccc(CNC(=O)C(NC(=O)C(Cc2ccc(C(=N)N)cc2)c2cccc(Br)c2)C2CCCCC2)cc1 (single isomer, unassigned; less polar) [Example 151]"
3,44,"N=C(N)NCCC[C@H](NC(=O)C(NC(=O)C(Cc1ccc(C(=N)N)cc1)C1CCCCC1)C1CCCCC1)C(=O)NCc1cccs1 (stereo partly drawn) [Example 192, 2-(S)-{2-[3-(4-Carbamimidoyl-phenyl)-2-cyclohexyl-propionylamino]-2-cyclohexyl-acetylamino}-5-guanidino-pentanoic acid (thiophen-2-ylmethyl)-amide trifluoroacetic acid salt]"
4,1,"N=C(N)c1ccc(CC(C(=O)NC(C(=O)NCC2CCN(C(=N)N)CC2)C2CCCCC2)c2ccc(Br)cc2)cc1 (single isomer, unassigned; less polar) [Example 177]"
5,5,"N=C(N)NCCCC(NC(=O)C(NC(=O)C(Cc1ccc(C(=N)N)cc1)c1cccc(F)c1)C1CCCCC1)C(N)=O (single isomer, unassigned; less polar) [Example 131]"
6,2,"N=C(N)NCCCC(NC(=O)C(NC(=O)C(Cc1ccc(C(=N)N)cc1)C1CCCCC1)C1CCCCC1)C(N)=O (single isomer, unassigned) [Example 110]"
7,13,"N=C(N)NCCC[C@H](NC(=O)[C@@H](NC(=O)C(Cc1ccc(C(=N)N)cc1)c1ccccc1)C1CCCCC1)C(N)=O (mixture of isomers) [Example 135, 2-(S)-{2-(S)-[3-(4-Carbamimidoyl-phenyl)-2-(R,S)-phenyl-propionylamino]-2-cyclohexyl-acetylamino}-5-guanidino-pentanoic acid amide hydrochloric acid salt]"
8,19,"N=C(N)NCCC[C@H](NC(=O)[C@@H](NC(=O)C(Cc1ccc(C(=N)N)cc1)C1CCCCC1)C1CCCCC1)C(=O)NCCc1ccccc1 (mixture of isomers) [Example 184, 2-(S)-{2-(R,S)-[3-(4-Carbamimidoyl-phenyl)-2-cyclohexyl-propionylamino]-2-(S)-cyclohexyl-acetylamino}-5-guanidino-pentanoic acid phenethyl-amide trifluoroacetic acid salt]"
9,1,"N=C(N)c1ccc(CC(C(=O)NC(C(=O)NCC2CCN(C(=N)N)CC2)C2CCCCC2)c2cccc(Cl)c2)cc1 (single isomer, unassigned; less polar) [Example 176]"
10,3,"N=C(N)c1ccc(CNC(=O)[C@@H](NC(=O)C(Cc2ccc(C(=N)N)cc2)c2ccc3ccccc3c2)C2CCCCC2)cc1 (mixture of isomers) [Example 228, N-[(S)-(4-Carbamimidoyl-benzylcarbamoyl)-cyclohexyl-methyl]-3-(4-carbamimidoyl-phenyl)-2-(R,S)-naphthalen-2-yl-propionamide hydrochloric acid salt]"
11,2.8,"CCCC[C@H](NC(=O)C(Cc1ccc(C(=N)N)cc1)c1cccnc1)C(=O)N[C@@H](CCCNC(=N)N)C(N)=O (mixture of isomers) [Example 23, 2-(S)-[3-(4-Carbamimidoyl-phenyl)-2-(R,S)-pyridin-3-yl-propionylamino]-hexanoic acid (1-(S)-carbamoyl-4-guanidino-butyl)-amide trifluoroacetic acid salt]"
12,5,"N=C(N)NCCCC(NC(=O)C(NC(=O)C(Cc1ccc(C(=N)N)cc1)C1CCCCC1)C1CCCCC1)C(=O)O (single isomer, unassigned; less polar) [Example 6]"
13,100,"Cc1ccc(C(Cc2ccc(C(=N)N)cc2)C(=O)N[C@H](C(=O)N[C@@H](CCCNC(=N)N)C(N)=O)C2CCCCC2)cc1 (mixture of isomers) [Example 141, 2-(S)-{2-(S)-[3-(4-Carbamimidoyl-phenyl)-2-(R,S)-p-tolyl-propionylamino]-2-cyclohexyl-acetylamino}-5-guanidino-pentanoic acid amide hydrochloric acid salt]"
14,1070,"CN(C(=O)C(Cc1ccc(C(=N)N)cc1)c1cccnc1)[C@@H](Cc1ccccc1)C(=O)N[C@@H](CCCNC(=N)N)C(N)=O (mixture of isomers) [Example 26, 2-(S)-(2-(S)-{[3-(4-Carbamimidoyl-phenyl)-2-(R,S)-pyridin-3-yl-propionyl]-methyl-amino}-3-phenyl-propionylamino)-5-guanidino-pentanoic acid amide trifluoroacetic acid salt]"
15,1930,"N=C(N)NCCC[C@H](NC(=O)[C@H](CO)NC(=O)C(Cc1ccc(C(=N)N)cc1)c1ccccc1)C(N)=O (mixture of isomers) [Example 57, 2-(S)-{2-(S)-[3-(4-Carbamimidoyl-phenyl)-2-(R,S)-phenyl-propionylamino]-3-hydroxy-propionylamino}-5-guanidino-pentanoic acid amide trifluoroacetic acid salt]"
16,67,"N=C(N)NCCC[C@H](NC(=O)[C@H](Cc1ccccc1)NC(=O)C(Cc1ccc(C(=N)N)cc1)c1cccnc1)C(N)=O (mixture of isomers) [Example 106, 2-(S)-{2-(S)-[3-(4-Carbamimidoyl-phenyl)-2-(R,S)-pyridin-3-yl-propionylamino]-3-phenyl-propionylamino}-5-guanidino-pentanoic acid amide trifluoroacetic acid salt]"
17,2,"N=C(N)NCCCC(NC(=O)C(NC(=O)C(Cc1ccc(C(=N)N)cc1)C1CCCCC1)C1CCCCC1)C(N)=O (single isomer, unassigned; less polar) [Example 4]"
18,59,"N=C(N)c1ccc(CNC(=O)C(NC(=O)C(Cc2ccc(C(=N)N)cc2)C2CCCCC2)C2CCCCC2)cc1 (single isomer, unassigned; less polar) [Example 111]"
19,440,"CC(Cc1ccc(C(=N)N)cc1)(C(=O)N[C@@H](CC1CCCCC1)C(=O)N[C@@H](CCCNC(=N)N)C(N)=O)c1ccccc1 (mixture of isomers) [Example 100, 2-(S)-{2-(S)-[3-(4-Carbamimidoyl-phenyl)-2-(R,S)-methyl-2-phenyl-propionylamino]-3-cyclohexyl-propionylamino}-5-guanidino-pentanoic acid amide trifluoroacetic acid salt]"

row,Compound,Ki [nM]
1,"N=C(N)c1ccc(CC(C(=O)N[C@H](C(=O)NCC2CCN(C(=N)N)CC2)C2CCCCC2)c2ccccc2)cc1 (single isomer, unassigned; less polar) [Example 222]",43
2,"N=C(N)c1ccc(CC(C(=O)N[C@H](C(=O)NCC2CCN(C(=N)N)CC2)C2CCCCC2)c2ccccc2Br)cc1 (single isomer, unassigned; less polar) [Example 236]",5
3,"CC(C)OC(=O)[C@H](CCCNC(=N)N)NC(=O)[C@@H](NC(=O)C(Cc1ccc(C(=N)N)cc1)c1cccc(Br)c1)C1CCCCC1 (single isomer, unassigned; less polar) [Example 242]",2
4,"CS(=O)(=O)c1cccc(C(Cc2ccc(C(=N)N)cc2)C(=O)N[C@H](C(=O)NCC2CCN(C(=N)N)CC2)C2CCCCC2)c1 (single isomer, unassigned; less polar) [Example 252]",31
5,"N=C(N)c1ccc(CC(C(=O)N[C@H](C(=O)NCC2CCC(C(=N)N)CC2)C2CCCCC2)c2cccc(Br)c2)cc1 (single isomer, unassigned; less polar) [Example 219]",5
6,"CC(=N)N1CCC(CNC(=O)[C@@H](NC(=O)C(Cc2ccc(C(=N)N)cc2)c2cccc(C(F)(F)F)c2)C2CCCCC2)CC1 (single isomer, unassigned; less polar) [Example 258]",8
7,"C[n+]1ccc(CNC(=O)[C@@H](NC(=O)C(Cc2ccc(C(=N)N)cc2)c2ccccc2)C2CCCCC2)cc1 (single isomer, unassigned; less polar) [Example 86]",600
8,"N=C(N)c1ccc(CC(C(=O)N[C@H](C(=O)NCC2CCN(C(=N)N)CC2)C2CCCCC2)c2cccc3ccccc23)cc1 (single isomer, unassigned; less polar) [Example 241]",25
9,"N=C(N)c1ccc(CC(C(=O)N[C@H](C(=O)NCC2CCN(C(=N)N)CC2)C2CCCCC2)c2ccc(Cl)cc2)cc1 (single isomer, unassigned; less polar) [Example 216]",19
